Measurements published in publication PMC11134608, “UBR5 forms ligand-dependent complexes on chromatin to regulate nuclear hormone receptor stability” (Molecular cell, 2023).
Like-named read-outs stand apart in the source and are kept apart here. Each block holds one compound with its values, some of them ahead of it.

Legend:
ER reporter = ER reporter degradation; assay type: cell-based, human; conditions: 1 μM (legend, SERDs)
Protocol: Reporter cell lines were seeded in triplicate at a density of 1 million cells/ml in 100 μl per well in a 96 well plate and measured once. Ligand was added by Digital Dispenser (Tecan), and incubated at 37°C for the appropriate time before reading by flow cytometry. Cells were analyzed for GFP vs mCherry expression. GFP expression was normalized to mCherry signal and ligand treatments were compared to DMSO controls.

[1] = test system: ER reporter (E3 ligase dependence); experiment: Targeted CRISPR screens, ER reporter K562 cells: E3 ligase used; assay type: cell-based, human; conditions: for E3 ligase used for ER degradation: K562 ER reporter, CRISPR screen; for E3 Ligase (Table S2): Supplemental Table S2
Protocol: To characterize the UPS pathway components involved in SERD-induced ER degradation, we performed CRISPR screens with our ER reporter in the presence multiple SERDs: fulvestrant, GDC-0927, elacestrant, giredestrant, camizestrant, amcenestrant, AZD-9496, brilanestrant, and LSZ-102. […] Taken together, these findings indicate that different classes of SERDs engage distinct ubiquitin ligases and degradation pathways to target ER.
The UPS and tiling CRISPR functional genomics screen was performed following previously described methods.[22] Briefly, the UPS CRISPR library targets 713 E1, E2, E3 ubiquitin ligases, and deubiquitinases and includes controls genes with a total of 2852 guide RNAs, cloned into the pXPR003 backbone. The UBR5 Tiling screen was created by CRISPR-SURF.[29] Viruses were produced in a T-175 format and ten percent by volume of the library virus was added to reporter cell lines in triplicates for transduction. Transduced cells were allowed to recover and expand for nine days, then treated with indicated ligand. Top and bottom 5% of cells by GFP signal were sorted for a total of at least 100,000 cells per replicate. Samples were processed as previously described.[22]
Reporter cell lines were treated with ATRA or 9-cis RA, and then sorted into four populations by eGFP/mCherry fluorescence ratios (Gates A-D), corresponding to the bottom and top 5–10% respectively (Figure S1D).[22],[23] Sorted cells were pelleted, lysed, and processed according to previous studies.[22] Briefly sgRNAs were amplified in two PCRs via Titanium Taq (Takara Bio 639210), Titanium Taq Buffer and 800uM dNTP mix and eight staggered forward primers. The first PCR also contained 200 nM SBS3-Stagger-pXPR003 forward primer and 200 nM SBS12-pXPR003 reverse primer (cycles: 5 minutes at 94°C, 15 × (30 sec at 94°C, 15 sec at 58°C, 30 sec at 72°C), 2 minutes at 72°C). Illumina adapters and barcodes were added in the second PCR (200 nM P5-SBS3 forward primer, 200 nM P7-barcode-SBS12 reverse primer). Samples were pooled and purified by agarose gel-electrophoresis (Qiagen) and NaOAc/isopropanol precipitation. Amplified guides were quantified by next-generation sequencing (Genomics Platform, Broad Institute), and analyzed for enrichment in Gate A over Gate D, representing degradation rescue.

ER [2] = experiment: ER degradation after RNF111 or UBR5 knockdown (reporter K562; T47D western); assay type: cell-based, human; conditions: K562 ER-GFP, shUBR5 / sgRNF111, Figure S8C, D
Protocol: (§1) Cells were analyzed for GFP vs mCherry expression.
Protein concentration was quantified via Pierce BCA Protein Assay Kit (ThermoFisher, 23225), and equal amounts of lysates were run on either SDS-PAGE 3–8% Tris-Acetate or 4–12% Bis-Tris Protein Gels (NuPAGE, ThermoFisher), then transferred to a PVDF membrane (Biorad, Wet Transfer System). Membranes were blocked for 30 minutes to 1 hour at room temperature in Odyssey Blocking Buffer/PBS (LI-COR Biosciences), and incubated with primary antibodies at 4 °C overnight. Stained membranes were washed three times in Tris-buffered saline with Tween 20 (TBS-T) and incubated for 1 hour at room temperature with secondary IRDye-conjugated antibodies (LI-COR Biosciences). Membranes were washed three times in TBS-T before imaging (Odyssey Imaging System, LI-COR Biosciences).

[3] = test system: HR+ HER2- advanced breast cancer; conditions: cited from earlier work; for clinical trial outcome, phase II: second-line treatment
Excerpt: page 11: Supplemental Table S2: Clinical Development of Selective Estrogen Receptor Degraders (SERDs), related to Figure 6 Clinical Development Status for HR+ HER2- Advanced Compound Side Chain E3 Ligase Breast Cancer Treatment Fulvestrant Long Alkyl RNF111 FDA approved for first-line and second-line treatments1,2 FDA approved for second-line, ESR1-mutated disease Elacestrant (RAD1901) Basic Amino RNF111 treatment3,4; Ongoing phase III trial for first-line treatment (NCT05512364) Ongoing Phase III trial for first-line treatment Camizestrant (AZD9833) Basic Amino RNF111 (NCT04711252, NCT0496493 ...

UBR5-RARA = experiment: In vitro FLAG-UBR5 pull-down of His-tagged RARA; assay type: binding, human; conditions: 50 μM ligand, anti-His western, 25 mM HEPES pH 7.4, 125 mM NaCl, 0.05% TWEEN-20
Protocol: 12 μL of FLAG M2 slurry were equilibrated with binding buffer (25 mM HEPES pH 7.4, 125 mM NaCl, 0.05% TWEEN-20). The resin was pelleted and excess buffer removed. 60 μL of fresh binding buffer was re-added, followed by addition of 15 pmol (2.5 μL ofa6 μM solution) of purified FLAG-UBR5 protein and incubated on a rotating wheel at 4°C for 60–90 minutes. The resin was pelleted, excess buffer removed, and 150 μL fresh binding buffer (supplemented with 50 μM ligand of interest or DMSO) added, followed by 150 pmol protein (binding partner protein of interest) and incubated for another 60 minutes. The resin was pelleted, excess buffer removed and washed with 400 μL of binding buffer (supplemented with ligand of interest or DMSO), and this process was repeated three times. The resin was pelleted, excess buffer removed and 45 μL of binding buffer supplemented with 1 mg/mL 3xFLAG peptide was added to elute proteins over 30 minutes on a rotating wheel at room temperature. The resin was pelleted, and 40 μL of the supernatant was collected and mixed with 12 μL of 5xSDS gel loading buffer. 6 μL of these samples were applied to SDS-PAGE on a 4–20% gradient gel (Biorad). The gel was transferred to a nitrocellulose membrane using the Trans-Blot Turbo Transfer System (Biorad). Following blocking with 5% skim milk solution in TBST, primary antibodies targeting the NR proteins were added in TBST and incubated overnight at 4 °C. The following day, membranes were washed thrice with TBST buffer and incubated for 45 minutes with fluorescent secondary antibody (Invitrogen A11357), followed by three more washes with TBST. Imaging was performed on a Licor Odyssey system, scanned at 800 nm.

ER [4] = conditions: ref [17], [53]; cited from earlier work
Excerpt: SERDs are a class of molecules targeting the ER for the treatment of breast cancer. […] Given that UBR5 is similarly recruited to the NR hydrophobic cleft, we hypothesized that fulvestrant and other SERDs may employ a different mechanism for ER degradation. […] One of the best understood SERDs, fulvestrant, drastically remodels the hydrophobic cleft[16],[17] in a manner incompatible with UBR5 or NCOA binding. […] Strikingly, this correlates with clinical utility, hallmarked by the wide use of fulvestrant and recent approval of elacestrant,[53] both of which employ RNF111, in contrast to UBR5 SERDs (Table S2), none of which have been approved for clinical use. The heterogeneity of ER transcriptional pro ...

UBR5-RARA/RXRA = experiment: In vitro FLAG-UBR5 pull-down of His-tagged RARA/RXRA heterodimer; assay type: binding, human; conditions: 50 μM ligand, pull-down, anti-His western; 25 mM HEPES pH 7.4, 125 mM NaCl, 0.05% TWEEN-20
Protocol: The resin was pelleted and excess buffer removed. 60 μL of fresh binding buffer was re-added, followed by addition of 15 pmol (2.5 μL ofa6 μM solution) of purified FLAG-UBR5 protein and incubated on a rotating wheel at 4°C for 60–90 minutes. The resin was pelleted, excess buffer removed, and 150 μL fresh binding buffer (supplemented with 50 μM ligand of interest or DMSO) added, followed by 150 pmol protein (binding partner protein of interest) and incubated for another 60 minutes. The resin was pelleted, excess buffer removed and washed with 400 μL of binding buffer (supplemented with ligand of interest or DMSO), and this process was repeated three times. The resin was pelleted, excess buffer removed and 45 μL of binding buffer supplemented with 1 mg/mL 3xFLAG peptide was added to elute proteins over 30 minutes on a rotating wheel at room temperature. The resin was pelleted, and 40 μL of the supernatant was collected and mixed with 12 μL of 5xSDS gel loading buffer. 6 μL of these samples were applied to SDS-PAGE on a 4–20% gradient gel (Biorad). The gel was transferred to a nitrocellulose membrane using the Trans-Blot Turbo Transfer System (Biorad). Following blocking with 5% skim milk solution in TBST, primary antibodies targeting the NR proteins were added in TBST and incubated overnight at 4 °C. […]

[5] = test system: progesterone receptor (PGR); experiment: PGR reporter degradation in U937; assay type: cell-based, human; conditions: for PGR degradation, significance: R5020 vs DMSO, n = 3
Protocol: Additional NRs that have well-characterized ligand-induced degradation include vitamin D receptor (VDR),[46] progesterone receptor (PGR),[47] and thyroid receptor beta (THRB).[7]
as §1

[6] = test system: thyroid receptor beta (THRB); experiment: THRB reporter degradation in U937; assay type: cell-based, human; conditions: for THRB degradation, significance: T3 vs DMSO, n = 3
Protocol: as §1

SMILES: O=C1CC[C@H](N2Cc3cc(N4CCN(CC5CCN(c6ccc([C@@H]7c8ccc(O)cc8CC[C@@H]7c7ccccc7)cc6)CC5)CC4)ccc3C2=O)C(=O)N1 [ARV-471]
ER reporter degradation (ER reporter): induced ER reporter degradation
E3 ligase used for ER degradation [1]: Cereblon (CRBN)
E3 Ligase (Table S2) [1]: CRBN

SMILES: C[C@@H]1Cc2c([nH]c3ccccc23)[C@@H](c2c(F)cc(NC3CN(CCCF)C3)cc2F)N1CC(F)(F)CO [giredestrant]
regulated class of ER degradation (RNF111 or UBR5) (ER [2]): RNF111 Regulated
ER reporter degradation (ER reporter): induced ER reporter degradation
E3 ligase used for ER degradation [1]: employed a different E3 ligase, RNF111
E3 Ligase (Table S2) [1]: RNF111
clinical trial outcome, phase II ([3]; giredestrant, NCT04576455, ref 6 (supplement)): Failed primary endpoint in phase II trial

binding of RARA to UBR5 (UBR5-RARA): robustly induced binding of RARA to UBR5
SMILES: CC1=C(/C=C/C(C)=C\C=C\C(C)=C\C(=O)O)C(C)(C)CCC1 [9-cis RA, 9-cis-retinoic acid]

SMILES: CC(F)(F)c1cc(F)ccc1-c1sc2cc(O)ccc2c1Oc1ccc(/C=C/C(=O)O)cc1 [LSZ-102]
regulated class of ER degradation (RNF111 or UBR5) (ER [2]): UBR5 Regulated
ER reporter degradation (ER reporter): induced ER reporter degradation
E3 ligase used for ER degradation [1]: required UBR5 for degradation
E3 Ligase (Table S2) [1]: UBR5

SMILES: CC1=C(c2cccc(O)c2)[C@H](c2ccc(OCCN3CC(CF)C3)cc2)Oc2ccc(O)cc21 [GDC-0927]
ER reporter degradation (ER reporter): induced ER reporter degradation
E3 ligase used for ER degradation [1]: employed a different E3 ligase, RNF111
E3 Ligase (Table S2) [1]: RNF111

SMILES: CCNCCc1ccc(CN(CC)c2cc(OC)ccc2[C@@H]2CCc3cc(O)ccc3C2)cc1 [elacestrant]
regulated class of ER degradation (RNF111 or UBR5) (ER [2]): RNF111 Regulated
ER degradation (literature) (ER [4]): lead to ER degradation
ER reporter degradation (ER reporter): induced ER reporter degradation
E3 ligase used for ER degradation [1]: employed a different E3 ligase, RNF111
E3 Ligase (Table S2) [1]: RNF111

SMILES: CCN(CCCCCOCC(=O)N[C@H](C(=O)N1C[C@H](O)C[C@H]1C(=O)N[C@@H](C)c1ccc(-c2scnc2C)cc1)C(C)(C)C)CCOc1ccc(C(=O)c2c(-c3ccc(O)cc3)sc3cc(O)ccc23)cc1 [ERD-308]
ER reporter degradation (ER reporter): induced ER reporter degradation
E3 ligase used for ER degradation [1]: von Hippel-Lindau (VHL)
E3 Ligase (Table S2) [1]: VHL

SMILES: C[C@@H]1Cc2c(ccc3[nH]ncc23)[C@@H](c2ccc(NC3CN(CCCF)C3)cn2)N1CC(F)(F)F [camizestrant]
regulated class of ER degradation (RNF111 or UBR5) (ER [2]): RNF111 Regulated
ER reporter degradation (ER reporter): induced ER reporter degradation
E3 ligase used for ER degradation [1]: employed a different E3 ligase, RNF111
E3 Ligase (Table S2) [1]: RNF111
clinical trial outcome, phase II ([3]; camizestrant, NCT04214288, ref 5 (supplement)): Successful phase II trial

SMILES: CC1(C)CC=C(c2cnc3ccccc3c2)c2cc(C(=O)Nc3ccc(C(=O)O)cc3)ccc21 [BMS614]
binding of RARA to UBR5 (UBR5-RARA): prevented complex formation
binding of RARA/RXRA to UBR5 (UBR5-RARA/RXRA): similarly hindered

SMILES: C[C@@H]1Cc2c([nH]c3ccccc23)[C@@H](c2c(F)cc(/C=C/C(=O)O)cc2F)N1CC(C)(C)F [AZD-9496]
regulated class of ER degradation (RNF111 or UBR5) (ER [2]): UBR5 Regulated
ER reporter degradation (ER reporter): induced ER reporter degradation
E3 ligase used for ER degradation [1]: required UBR5 for degradation
E3 Ligase (Table S2) [1]: UBR5

PGR degradation, significance ([5]; LUC1 shRNA): *** (***p<0.0005)
PGR degradation, significance ([5]; LUC2 shRNA): * (*p<0.05)
PGR reporter degradation ([5]; U937, R5020): confirmed degradation
effect of UBR5 shRNAs on PGR degradation ([5]; U937, R5020): rescued degradation
SMILES: CCC(=O)[C@@]1(C)CC[C@H]2[C@@H]3CCC4=CC(=O)CCC4=C3CC[C@@]21C [R5020]

THRB reporter degradation ([6]; U937, T3): confirmed degradation
UBR5 dependence of THRB degradation ([6]; U937, T3): not dependent on UBR5
SMILES: N[C@@H](Cc1cc(I)c(Oc2cc(I)c(O)c(I)c2)c(I)c1)C(=O)O [levothyroxine [T3], levothyroxine]
THRB degradation, significance ([6]; LUC1 shRNA): ** (**p<0.005)
THRB degradation, significance ([6]; LUC2 shRNA): ** (**p<0.005)
THRB degradation, significance ([6]; UBR5-1 shRNA): ** (**p<0.005)
THRB degradation, significance ([6]; UBR5-2 shRNA): ** (**p<0.005)

SMILES: O=C(O)c1ccc2c(c1)CCCC(c1ccc(Cl)cc1Cl)=C2c1ccc(O[C@H]2CCN(CCCF)C2)cc1 [amcenestrant]
regulated class of ER degradation (RNF111 or UBR5) (ER [2]): RNF111 Regulated
ER reporter degradation (ER reporter): induced ER reporter degradation
E3 ligase used for ER degradation [1]: employed a different E3 ligase, RNF111
E3 Ligase (Table S2) [1]: RNF111
clinical trial outcome, phase III ([3]; amcenestrant, first-line treatment, NCT04478266, ref 7 (supplement)): Failed primary endpoint phase III trial for first-line
clinical trial outcome, phase II ([3]; amcenestrant, NCT04059484, ref 8 (supplement)): Failed primary endpoint in
